Source: US20250122192A1, “5-PYRIMIDINECARBOXAMIDE DERIVATIVES AND METHODS OF USING THE SAME” (Rgenta Therapeutics, Inc., priority 2021, published 2025)
Structures can show the parent of a compound that is named as a salt. Where two headings read alike, the source gives them in different places.

Tested on: PMS1
Experiment: Mini-gene reporter assay-PMS1
Type: cell-based
Conditions: Homo sapiens
How it was run: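 Compound dilution series in duplicate added to transiently transfected HEK293 reporter cells, then incubated; EC50 from Levenberg-Marquardt fit of luminescence. The reporter joins the alternatively skipped exon, its neighbouring introns and exons to firefly luciferase, so induced inclusion gives more signal.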

[1] = HEK293, PMS1 mini-gene firefly luciferase reporter transiently transfected into HEK293 cells, read-out: PMS1 IC50

| IC50 [1] [nM] | Structure (SMILES) | also measured |
| --- | --- | --- |
| < 500 | CCOc1nc(N2CCN[C@@H](C(C)C)C2)ncc1C(=O)Nc1cc(F)c2nc(C)cn2c1 [Compound 226] |  |
|  | CCOc1nc(N2CCNCC2C(C)C)ncc1C(=O)Nc1cc(F)c2nc(C)cn2c1 (stereo not shown) [Compound 227] | activation at 5 µM (at 5 μM, PMS1 mini-gene firefly luciferase reporter in HEK293 cells, read-out: PMS1% Effect at 5 μM): < 50% |
| 500 to 1000 | CCOc1nc(N2CCCC(CNC)C2)ncc1C(=O)Nc1cc(F)c2nc(C)cn2c1 (stereo not shown) [Compound 228] |  |
| < 500 | CCOc1nc(N2CCC(NC)C2)ncc1C(=O)Nc1cc(F)c2nc(C)cn2c1 (stereo not shown) [Compound 229] |  |
| < 500 | CCOc1nc(N2CC(C)NCC2C)ncc1C(=O)Nc1cc(F)c2nc(C)cn2c1 (stereo not shown) [Compound 230] |  |
| < 500 | CCOc1nc(N2C[C@@H](C)N[C@@H](C)C2)ncc1C(=O)Nc1cc(F)c2nc(C)cn2c1 [Compound 231] |  |
| 500 to 1000 | CCOc1nc(N2CCCC(NC)C2)ncc1C(=O)Nc1cc(F)c2nc(C)cn2c1 (stereo not shown) [Compound 232] |  |
| 500 to 1000 | CCOc1nc(N2C[C@@H]3C[C@H]2CN3)ncc1C(=O)Nc1cc(F)c2nc(C)cn2c1 [Compound 233] |  |
| < 500 | CCOc1nc(N2CCC3(CCNC3)C2)ncc1C(=O)Nc1cc(F)c2nc(C)cn2c1 (stereo not shown) [Compound 234] |  |
| < 500 | CCOc1nc(N2CCC3(CC2)CNC3)ncc1C(=O)Nc1cc(F)c2nc(C)cn2c1 [Compound 235] |  |
| > 3000 | CCOc1nc(N(C)CC2CCNCC2)ncc1C(=O)Nc1cc(F)c2nc(C)cn2c1 [Compound 237] |  |
| < 500 | CCOc1nc(N(C)C2CCNC2)ncc1C(=O)Nc1cc(F)c2nc(C)cn2c1 (stereo not shown) [Compound 238] |  |
| < 500 | CCOc1nc(N2CC3(CCNCC3)C2)ncc1C(=O)Nc1cc(F)c2nc(C)cn2c1 [Compound 239] |  |
| < 500 | CCOc1nc(N2CCNCC2C)ncc1C(=O)Nc1cc(F)c2nc(C)cn2c1 (stereo not shown) [Compound 240] |  |
| < 500 | CCOc1nc(N2CC(NC)C2)ncc1C(=O)Nc1cc(F)c2nc(C)cn2c1 [Compound 242] |  |
| < 500 | CCOc1nc(N2CCNC(C)C2)ncc1C(=O)Nc1cc(F)c2nc(C)cn2c1 (stereo not shown) [Compound 243] |  |
| < 500 | CCOc1nc(N(C)C2CCCNC2)ncc1C(=O)Nc1cc(F)c2nc(C)cn2c1 (stereo not shown) [Compound 244] |  |
| < 500 | CCOc1nc(N2CC3(CC(NC)CO3)C2)ncc1C(=O)Nc1cc(F)c2nc(C)cn2c1 (stereo not shown) [Compound 246] |  |
| < 500 | CCNC1COC2(C1)CN(c1ncc(C(=O)Nc3cc(F)c4nc(C)cn4c3)c(OCC)n1)C2 (stereo not shown) [Compound 247] |  |
| < 500 | CCOc1nc(N2CC3(CC(NC(C)C)CO3)C2)ncc1C(=O)Nc1cc(F)c2nc(C)cn2c1 (stereo not shown) [Compound 248] |  |

| IC50 [1] [nM] | Structure (SMILES) | also measured |
| --- | --- | --- |
| > 3000 | CCOc1nc(N(CC)C2CCCNCC2)ncc1C(=O)Nc1cn2cc(C)nc2c(C)n1 (stereo not shown) [Compound 249] |  |
| 1000 to 3000 | CCOc1nc(NC2CCNCC2)ncc1C(=O)Nc1cn2cc(C)nc2c(C)n1 [Compound 251, N-(2,8-dimethylimidazo[1,2-a]pyrazin-6-yl)-4-ethoxy-2-(piperidin-4-ylamino) pyrimidine-5-carboxamide formate] |  |
| > 3000 | CCOc1nc(N2CCN(CC)CC2)ncc1C(=O)Nc1cc(F)c2nn(C)cc2c1 [Compound 252, 4-ethoxy-2-(4-ethylpiperazin-1-yl)-N-(7-fluoro-2-methyl-2H-indazol-5-yl)pyrimidine-5-carboxamide hydrochloride] |  |
| > 3000 | CCOc1nc(N2CC(NC)C2)ncc1C(=O)Nc1cc(F)c2nn(C)cc2c1 [Compound 254, 4-ethoxy-N-(7-fluoro-2-methyl-2H-indazol-5-yl)-2-(3-(methylamino)azetidin-1-yl)pyrimidine-5-carboxamide hydrochloride] |  |
| > 3000 | CCOc1nc(N2CC(NC)C2)ncc1C(=O)Nc1ccc2nn(C)cc2c1 [Compound 255, 4-ethoxy-N-(2-methyl-2H-indazol-5-yl)-2-(3-(methylamino)azetidin-1-yl)pyrimidine-5-carboxamide] |  |
| 1000 to 3000 | CCOc1nc(N2CCN(C)CC2)ncc1C(=O)Nc1cc(F)c2nn(C)cc2c1 [Compound 259, 4-ethoxy-N-(7-fluoro-2-methyl-2H-indazol-5-yl)-2-(4-methylpiperazin-1-yl)pyrimidine-5-carboxamide formate] |  |
|  | CCOc1nc(N(CC)C2CCNCC2)ncc1C(=O)Nc1cc(OC)c2nc(C)cn2c1 [Compound 260, 4-ethoxy-2-(ethyl(piperidin-4-yl)amino)-N-(8-methoxy-2-methylimidazo[1,2-a]pyridin-6-yl)pyrimidine-5-carboxamide formate] | IC50 (HEK293, read-out: PMS1 IC50 (nM)): < 500 nM |
| < 500 | CCOc1nc(N2CC[C@H](NC)C2)ncc1C(=O)Nc1cc(F)c2nc(C)cn2c1 [Compound 261, (S)-4-ethoxy-N-(8-fluoro-2-methylimidazo[1,2-a]pyridin-6-yl)-2-(3-(methylamino)pyrrolidin-1-yl)pyrimidine-5-carboxamide formate] |  |
| < 500 | CCOc1nc(N2CC[C@@H](NC)C2)ncc1C(=O)Nc1cc(F)c2nc(C)cn2c1 [Compound 262, (R)-4-ethoxy-N-(8-fluoro-2-methylimidazo[1,2-a]pyridin-6-yl)-2-(3-(methylamino)pyrrolidin-1-yl)pyrimidine-5-carboxamide formate] |  |
| < 500 | CCOc1nc(N2CCC(NC)C2)ncc1C(=O)Nc1cc(F)c2nn(C)cc2c1 (stereo not shown) [Compound 263, 4-ethoxy-N-(7-fluoro-2-methyl-2H-indazol-5-yl)-2-(3-(methylamino)pyrrolidin-1-yl)pyrimidine-5-carboxamide formate] |  |
| 1000 to 3000 | CCOc1nc(N2CCN[C@H](C)C2)ncc1C(=O)Nc1cc(F)c2nn(C)cc2c1 [Compound 264, (R)-4-ethoxy-N-(7-fluoro-2-methyl-2H-indazol-5-yl)-2-(3-methylpiperazin-1-yl)pyrimidine-5-carboxamide formic acid] |  |
| > 3000 | CCOc1nc(N2CCNC(C)(C)C2)ncc1C(=O)Nc1cc(F)c2nn(C)cc2c1 [Compound 265, 2-(3,3-dimethylpiperazin-1-yl)-4-ethoxy-N-(7-fluoro-2-methyl-2H-indazol-5-yl)pyrimidine-5-carboxamide] |  |
| 1000 to 3000 | COc1nc(NC2CCNCC2)ncc1C(=O)Nc1cn2cc(C)nc2c(C)n1 [Compound 266, N-(2,8-dimethylimidazo[1,2-a]pyrazin-6-yl)-4-methoxy-2-(piperidin-4-ylamino) pyrimidine-5-carboxamide formic acid] |  |
| 1000 to 3000 | CCOc1nc(NC2CCNCC2)ncc1C(=O)Nc1cn2cc(C)nc2cn1 [Compound 268, 4-ethoxy-N-(2-methylimidazo[1,2-a]pyrazin-6-yl)-2-(piperidin-4-ylamino) pyrimidine-5-carboxamide formate] |  |
| 1000 to 3000 | CCOc1nc(N2CCC(N(C)C)C2)ncc1C(=O)Nc1cc(F)c2nc(C)cn2c1 (stereo not shown) [Compound 269, 2-(3-(dimethylamino)pyrrolidin-1-yl)-4-ethoxy-N-(8-fluoro-2-methylimidazo[1,2-a]pyridin-6-yl)pyrimidine-5-carboxamide] |  |
| < 500 | CCOc1nc(N2CCC(NC)C2)ncc1C(=O)Nc1ccc2nn(C)cc2c1 (stereo not shown) [Compound 270, 4-ethoxy-N-(2-methyl-2H-indazol-5-yl)-2-(3-(methylamino)pyrrolidin-1-yl)pyrimidine-5-carboxamide hydrochloride] |  |
| > 3000 | COc1nc(NC2CCNCC2)ncc1C(=O)Nc1cn2cc(C)nc2cn1 [Compound 271, 4-methoxy-N-(2-methylimidazo[1,2-a]pyrazin-6-yl)-2-(piperidin-4-ylamino) pyrimidine-5-carboxamide 2,2,2-trifluoroacetate] |  |
| 1000 to 3000 | CCOc1nc(N2CCNCC2)ncc1C(=O)Nc1cc(OC)c2nn(C)cc2c1 [Compound 273, 4-ethoxy-N-(7-methoxy-2-methyl-2H-indazol-5-yl)-2-(piperazin-1-yl)pyrimidine-5-carboxamide formate] |  |
| > 3000 | CCOc1nc(N2CCC(NC)C2)ncc1C(=O)Nc1ccc2nc(C)cn2c1 (stereo not shown) [Compound 274, 4-ethoxy-2-(3-(methylamino)pyrrolidin-1-yl)-N-(2-methylimidazo[1,2-a]pyridin-6-yl)pyrimidine-5-carboxamide] |  |

| Structure (SMILES) | IC50 [1] [nM] | also measured |
| --- | --- | --- |
| CCOc1nc(N(C)C2CCNCC2)ncc1C(=O)Nc1cc(F)c2nc(C)cn2c1 [Compound 241] | < 500 |  |
| COc1nc(N(C)C2CCNCC2)ncc1C(=O)Nc1cn2cc(C)nc2c(C)n1 [Compound 253, N-(2,8-dimethylimidazo[1,2-a]pyrazin-6-yl)-4-methoxy-2-(methyl(piperidin-4-yl)amino) pyrimidine-5-carboxamide formate] | < 500 |  |
| CCOc1nc(N(C)C2CCNCC2)ncc1C(=O)Nc1cn2cc(C)nc2cn1 [Compound 256, 4-ethoxy-2-(methyl(piperidin-4-yl)amino)-N-(2-methylimidazo[1,2-a]pyrazin-6-yl)pyrimidine-5-carboxamide] | < 500 |  |
| COc1nc(N(C)C2CCNCC2)ncc1C(=O)Nc1cn2cc(C)nc2cn1 [Compound 257, 4-methoxy-2-(methyl(piperidin-4-yl)amino)-N-(2-methylimidazo[1,2-a]pyrazin-6-yl)pyrimidine-5-carboxamide formate] | 500 to 1000 |  |
| CCOc1nc(N(CC)C2CCNCC2)ncc1C(=O)Nc1cc(F)c2nn(C)cc2c1 [Compound 258, 4-ethoxy-2-(ethyl(piperidin-4-yl)amino)-N-(7-fluoro-2-methyl-2H-indazol-5-yl)pyrimidine-5-carboxamide formate] | < 500 |  |
| CCOc1nc(N(CC)C2CCNCC2)ncc1C(=O)Nc1cn2cc(C)nc2cn1 [Compound 267, 4-ethoxy-2-(ethyl(piperidin-4-yl)amino)-N-(2-methylimidazo[1,2-a]pyrazin-6-yl)pyrimidine-5-carboxamide formic acid] | 500 to 1000 |  |
| CCOc1nc(N(CC)C2CCNCC2)ncc1C(=O)Nc1ccc2nn(C)cc2c1 [Compound 272, 4-ethoxy-2-(ethyl(piperidin-4-yl)amino)-N-(2-methyl-2H-indazol-5-yl)pyrimidine-5-carboxamide formate] | 1000 to 3000 |  |
